For one molecule, inhibition results are on record in paper PMC11233931, “Remodeling tumor‐associated macrophage for anti‐cancer effects by rational design of irreversible inhibition of mitogen‐activated protein kinase‐activated protein kinase 2” (MedComm, 2024).

Test in all cases: Eurofins kinase selectivity profile against 380 other human recombinant kinases (Table S2)
Common to all, as to format: biochemical

Assay [1] has as its target T1, 380 human recombinant protein kinases (Homo sapiens, UniProt Q15746).
T1 construct: purchased Eurofins (Celle Lévescault)
The settings on record: MLCK(h), read-out: Inhibition rate. The essentials:
(§1)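 Profiling against 380 human recombinant kinases carried out by Eurofins at various compound concentrations.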

Assay [2] concerns the target T2, 380 human recombinant protein kinases (Homo sapiens, UniProt P42681).
T2 construct: purchased Eurofins (Celle Lévescault)
T2 sequence (P42681 1-527): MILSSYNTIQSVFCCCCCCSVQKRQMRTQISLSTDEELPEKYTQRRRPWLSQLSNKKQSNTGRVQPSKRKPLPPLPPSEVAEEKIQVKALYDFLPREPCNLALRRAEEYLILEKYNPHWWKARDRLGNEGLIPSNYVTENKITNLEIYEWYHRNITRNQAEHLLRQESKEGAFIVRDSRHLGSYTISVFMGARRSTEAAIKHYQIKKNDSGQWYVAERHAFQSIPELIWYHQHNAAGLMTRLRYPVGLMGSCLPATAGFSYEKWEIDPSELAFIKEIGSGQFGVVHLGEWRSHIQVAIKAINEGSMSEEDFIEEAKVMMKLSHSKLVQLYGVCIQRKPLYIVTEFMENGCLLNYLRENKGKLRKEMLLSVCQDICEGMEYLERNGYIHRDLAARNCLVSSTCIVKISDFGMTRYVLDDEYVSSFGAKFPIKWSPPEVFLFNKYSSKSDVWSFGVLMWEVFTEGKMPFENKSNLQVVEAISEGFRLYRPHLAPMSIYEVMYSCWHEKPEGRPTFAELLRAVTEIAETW
The conditions noted are these: Txk(h), read-out: Inhibition rate (%). The essentials: as §1

For assay [3], the target named is T3, 380 human recombinant protein kinases (Homo sapiens, UniProt Q13315).
T3 construct: purchased Eurofins (Celle Lévescault)
T3 sequence (Q13315 whole entry): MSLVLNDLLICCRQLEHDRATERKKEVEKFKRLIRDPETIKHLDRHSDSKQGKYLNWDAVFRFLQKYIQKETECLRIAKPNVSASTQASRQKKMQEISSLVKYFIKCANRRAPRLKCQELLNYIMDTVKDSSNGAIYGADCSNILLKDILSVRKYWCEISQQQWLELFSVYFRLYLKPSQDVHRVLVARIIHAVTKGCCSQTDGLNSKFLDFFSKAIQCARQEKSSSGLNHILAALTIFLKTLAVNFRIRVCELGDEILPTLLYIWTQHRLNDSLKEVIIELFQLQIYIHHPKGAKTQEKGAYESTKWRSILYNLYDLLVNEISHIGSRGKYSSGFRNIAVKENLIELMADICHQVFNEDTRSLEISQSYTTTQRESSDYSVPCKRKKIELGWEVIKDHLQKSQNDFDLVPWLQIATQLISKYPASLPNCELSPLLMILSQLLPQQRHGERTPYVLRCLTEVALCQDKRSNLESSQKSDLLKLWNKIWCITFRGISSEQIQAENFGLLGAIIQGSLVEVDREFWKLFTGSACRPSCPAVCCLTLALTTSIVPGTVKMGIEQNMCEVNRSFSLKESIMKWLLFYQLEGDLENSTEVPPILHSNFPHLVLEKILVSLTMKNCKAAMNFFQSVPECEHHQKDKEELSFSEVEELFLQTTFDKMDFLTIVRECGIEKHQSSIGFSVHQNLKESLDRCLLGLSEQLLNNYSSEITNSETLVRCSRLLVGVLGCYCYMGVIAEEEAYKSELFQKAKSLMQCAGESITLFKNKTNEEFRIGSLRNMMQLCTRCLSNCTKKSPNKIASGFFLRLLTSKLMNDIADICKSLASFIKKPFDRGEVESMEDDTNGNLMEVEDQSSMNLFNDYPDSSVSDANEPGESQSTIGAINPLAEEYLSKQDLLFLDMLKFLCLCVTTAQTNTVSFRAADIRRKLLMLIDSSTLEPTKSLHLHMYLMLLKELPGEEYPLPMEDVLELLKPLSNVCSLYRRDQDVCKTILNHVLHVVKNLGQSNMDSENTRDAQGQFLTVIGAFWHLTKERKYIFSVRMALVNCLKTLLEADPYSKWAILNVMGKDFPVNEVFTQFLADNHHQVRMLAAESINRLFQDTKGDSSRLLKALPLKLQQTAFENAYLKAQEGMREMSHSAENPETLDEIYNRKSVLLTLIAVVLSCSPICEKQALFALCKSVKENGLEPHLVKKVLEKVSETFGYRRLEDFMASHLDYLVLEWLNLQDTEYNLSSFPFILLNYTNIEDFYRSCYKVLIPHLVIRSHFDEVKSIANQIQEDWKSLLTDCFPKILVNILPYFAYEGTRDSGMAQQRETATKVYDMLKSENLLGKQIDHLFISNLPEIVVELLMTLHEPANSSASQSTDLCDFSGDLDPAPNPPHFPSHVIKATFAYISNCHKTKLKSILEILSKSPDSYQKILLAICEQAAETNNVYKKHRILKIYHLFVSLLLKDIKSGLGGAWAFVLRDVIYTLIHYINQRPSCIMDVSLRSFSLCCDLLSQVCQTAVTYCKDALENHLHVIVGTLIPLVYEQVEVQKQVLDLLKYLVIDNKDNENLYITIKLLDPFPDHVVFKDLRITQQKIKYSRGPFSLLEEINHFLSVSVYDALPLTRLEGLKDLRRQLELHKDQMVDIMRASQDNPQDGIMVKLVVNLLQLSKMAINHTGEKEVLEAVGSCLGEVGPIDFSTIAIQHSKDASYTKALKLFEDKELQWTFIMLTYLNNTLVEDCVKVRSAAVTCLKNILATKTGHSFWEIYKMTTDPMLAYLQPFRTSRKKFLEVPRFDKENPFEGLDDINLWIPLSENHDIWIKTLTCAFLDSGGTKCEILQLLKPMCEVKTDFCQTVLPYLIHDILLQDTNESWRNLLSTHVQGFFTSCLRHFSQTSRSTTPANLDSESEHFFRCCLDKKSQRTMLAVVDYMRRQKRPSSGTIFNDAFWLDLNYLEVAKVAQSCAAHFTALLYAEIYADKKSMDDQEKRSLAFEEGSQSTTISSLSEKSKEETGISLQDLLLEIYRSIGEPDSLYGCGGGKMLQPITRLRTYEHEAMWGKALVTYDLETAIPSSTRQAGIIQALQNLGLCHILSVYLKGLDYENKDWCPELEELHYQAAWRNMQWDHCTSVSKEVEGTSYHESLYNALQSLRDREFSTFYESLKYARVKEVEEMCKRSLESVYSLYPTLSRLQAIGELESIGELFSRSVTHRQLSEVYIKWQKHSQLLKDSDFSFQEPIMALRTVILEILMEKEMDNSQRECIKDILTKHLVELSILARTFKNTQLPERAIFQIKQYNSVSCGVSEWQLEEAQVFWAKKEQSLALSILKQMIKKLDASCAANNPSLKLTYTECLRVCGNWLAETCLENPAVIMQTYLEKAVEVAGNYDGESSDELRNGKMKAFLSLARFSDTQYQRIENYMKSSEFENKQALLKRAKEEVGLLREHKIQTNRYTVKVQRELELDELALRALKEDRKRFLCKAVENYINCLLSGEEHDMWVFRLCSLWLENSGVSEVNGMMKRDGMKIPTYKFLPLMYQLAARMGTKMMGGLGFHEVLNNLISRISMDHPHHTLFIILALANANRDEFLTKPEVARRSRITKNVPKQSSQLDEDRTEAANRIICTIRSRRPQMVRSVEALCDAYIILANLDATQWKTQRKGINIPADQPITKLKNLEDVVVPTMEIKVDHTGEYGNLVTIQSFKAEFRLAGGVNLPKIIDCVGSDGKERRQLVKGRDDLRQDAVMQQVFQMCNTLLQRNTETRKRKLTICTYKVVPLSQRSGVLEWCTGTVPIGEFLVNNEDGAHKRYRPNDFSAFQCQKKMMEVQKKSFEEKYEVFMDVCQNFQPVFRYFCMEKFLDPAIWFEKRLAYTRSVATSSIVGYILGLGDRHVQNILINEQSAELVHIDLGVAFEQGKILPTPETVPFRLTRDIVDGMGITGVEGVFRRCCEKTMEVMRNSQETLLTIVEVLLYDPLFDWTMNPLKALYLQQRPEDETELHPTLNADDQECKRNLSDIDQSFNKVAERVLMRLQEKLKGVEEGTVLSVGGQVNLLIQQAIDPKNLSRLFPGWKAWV
The settings on record: ATM(h), read-out: Inhibition rate (%). An outline of the steps:
as §1

Assay [4] concerns the target T4, 380 human recombinant protein kinases (Homo sapiens, UniProt Q9Y6E0).
T4 construct: purchased Eurofins (Celle Lévescault)
The settings on record: MST3(h), read-out: Inhibition rate. The essentials: as §1

The target of assay [5] is T5, 380 human recombinant protein kinases (Homo sapiens, UniProt Q9BZL6).
T5 construct: purchased Eurofins (Celle Lévescault)
T5 sequence (Q9BZL6 1-878): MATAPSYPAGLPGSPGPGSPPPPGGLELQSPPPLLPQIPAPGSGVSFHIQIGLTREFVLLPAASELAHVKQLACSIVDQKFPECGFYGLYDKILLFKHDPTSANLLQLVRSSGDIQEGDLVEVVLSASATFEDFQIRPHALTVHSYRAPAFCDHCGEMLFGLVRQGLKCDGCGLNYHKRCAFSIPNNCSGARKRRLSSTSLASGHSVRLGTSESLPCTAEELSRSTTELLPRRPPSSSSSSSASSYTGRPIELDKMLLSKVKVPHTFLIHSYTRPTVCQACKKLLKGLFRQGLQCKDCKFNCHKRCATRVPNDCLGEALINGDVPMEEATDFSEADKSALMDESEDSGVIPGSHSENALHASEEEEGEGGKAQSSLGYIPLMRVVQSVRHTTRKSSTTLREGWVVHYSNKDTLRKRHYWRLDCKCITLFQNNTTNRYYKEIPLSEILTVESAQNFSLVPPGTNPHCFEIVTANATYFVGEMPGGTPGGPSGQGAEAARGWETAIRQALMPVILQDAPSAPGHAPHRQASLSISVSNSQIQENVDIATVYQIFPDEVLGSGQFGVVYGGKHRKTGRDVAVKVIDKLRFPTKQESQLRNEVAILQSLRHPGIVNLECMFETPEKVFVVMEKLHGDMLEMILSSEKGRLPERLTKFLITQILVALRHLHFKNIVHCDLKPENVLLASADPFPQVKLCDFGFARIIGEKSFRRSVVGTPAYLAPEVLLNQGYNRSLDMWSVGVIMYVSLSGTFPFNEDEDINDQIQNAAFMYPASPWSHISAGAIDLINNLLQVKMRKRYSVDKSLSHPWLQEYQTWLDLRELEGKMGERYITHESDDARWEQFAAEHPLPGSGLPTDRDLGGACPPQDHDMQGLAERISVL
The settings on record: PKD2(h), read-out: Inhibition rate. The essentials: as §1

Assay [6] concerns the target T6, 380 human recombinant protein kinases (Homo sapiens, UniProt P08069).
T6 construct: purchased Eurofins (Celle Lévescault)
The settings on record: IGF-1R(h), read-out: Inhibition rate. An outline of the steps:
as §1

Each structure is given as a SMILES string.

T4 sequence (Q9Y6E0 whole entry): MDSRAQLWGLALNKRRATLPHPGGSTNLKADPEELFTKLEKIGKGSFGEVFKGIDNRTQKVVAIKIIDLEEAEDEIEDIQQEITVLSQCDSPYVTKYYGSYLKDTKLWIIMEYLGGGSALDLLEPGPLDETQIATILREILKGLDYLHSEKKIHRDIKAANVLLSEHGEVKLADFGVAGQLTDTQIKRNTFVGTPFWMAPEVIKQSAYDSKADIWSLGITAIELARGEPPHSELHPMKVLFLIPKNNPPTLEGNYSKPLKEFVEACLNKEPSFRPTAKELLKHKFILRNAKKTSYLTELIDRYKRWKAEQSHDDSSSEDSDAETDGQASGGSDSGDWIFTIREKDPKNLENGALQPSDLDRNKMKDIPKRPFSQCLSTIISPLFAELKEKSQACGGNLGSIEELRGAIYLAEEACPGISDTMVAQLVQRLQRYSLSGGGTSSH
T6 sequence (P08069 31-1367): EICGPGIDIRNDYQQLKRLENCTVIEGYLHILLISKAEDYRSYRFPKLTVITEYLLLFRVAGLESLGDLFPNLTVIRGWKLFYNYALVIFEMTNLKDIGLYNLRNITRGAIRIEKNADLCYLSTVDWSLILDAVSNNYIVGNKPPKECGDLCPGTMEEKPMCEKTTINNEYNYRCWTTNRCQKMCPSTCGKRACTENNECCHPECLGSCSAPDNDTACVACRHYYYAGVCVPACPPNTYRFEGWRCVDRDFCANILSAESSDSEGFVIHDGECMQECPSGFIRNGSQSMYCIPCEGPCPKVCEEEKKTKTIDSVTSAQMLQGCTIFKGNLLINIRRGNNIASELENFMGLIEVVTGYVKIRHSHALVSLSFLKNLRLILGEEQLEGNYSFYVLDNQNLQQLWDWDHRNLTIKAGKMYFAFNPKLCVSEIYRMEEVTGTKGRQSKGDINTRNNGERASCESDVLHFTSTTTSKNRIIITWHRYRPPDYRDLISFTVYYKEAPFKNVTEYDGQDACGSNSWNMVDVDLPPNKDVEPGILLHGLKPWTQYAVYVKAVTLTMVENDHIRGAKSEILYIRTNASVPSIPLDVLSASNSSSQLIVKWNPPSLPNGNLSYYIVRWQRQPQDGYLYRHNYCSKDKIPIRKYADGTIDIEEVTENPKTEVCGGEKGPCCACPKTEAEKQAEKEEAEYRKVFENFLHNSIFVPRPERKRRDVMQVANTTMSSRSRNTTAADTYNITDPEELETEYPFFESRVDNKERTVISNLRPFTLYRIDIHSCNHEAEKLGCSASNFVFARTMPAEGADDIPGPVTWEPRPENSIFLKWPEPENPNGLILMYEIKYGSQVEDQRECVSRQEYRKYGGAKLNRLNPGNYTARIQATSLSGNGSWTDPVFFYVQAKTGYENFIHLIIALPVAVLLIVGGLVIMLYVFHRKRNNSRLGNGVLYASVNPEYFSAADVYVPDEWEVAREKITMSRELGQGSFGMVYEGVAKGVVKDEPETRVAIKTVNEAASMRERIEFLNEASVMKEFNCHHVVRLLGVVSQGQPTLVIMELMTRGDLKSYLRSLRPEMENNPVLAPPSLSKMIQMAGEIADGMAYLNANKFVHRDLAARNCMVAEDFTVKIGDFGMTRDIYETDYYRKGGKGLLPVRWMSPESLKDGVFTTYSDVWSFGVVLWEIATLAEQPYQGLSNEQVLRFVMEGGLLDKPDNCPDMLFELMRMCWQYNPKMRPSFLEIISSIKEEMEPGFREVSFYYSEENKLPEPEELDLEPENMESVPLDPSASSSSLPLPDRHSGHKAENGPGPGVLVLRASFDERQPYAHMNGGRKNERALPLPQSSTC

The term inhibition denotes the relative decrease from the control value, in per cent. On to `C=CC(=O)Nc1cc(-c2cc(-c3cc4c([nH]3)CCNC4=O)ccn2)ccc1OC(F)(F)F` [compound 11], for which the inhibition at 0.01 µM in assay [1] (10 nM) was -10%; in assay [2] (10 nM), -3%; in assay [3] (10 nM) it was -3%; in assay [4] (10 nM), -6%; in assay [5] (10 nM) it was 0%; in assay [6] (10 nM), -3%. For the same molecule, the inhibition at 0.1 µM was 0% in assay [1] (100 nM); 1% in assay [2] (100 nM); -6% in assay [3] (100 nM); 2% in assay [4] (100 nM); 8% in assay [5] (100 nM); -2% in assay [6] (100 nM). Also, the inhibition at 1 µM is 34% in assay [1] (1000 nM); -1% in assay [2] (1000 nM); -9% in assay [3] (1000 nM); 2% in assay [4] (1000 nM); 47% in assay [5] (1000 nM); -14% in assay [6] (1000 nM).
